Source: patent US8632825B2, “Anti-tumoural effects of cannabinoid combinations” (GW Pharma Limited, priority 2008, dated 2014)
Where a SMILES comes first, the peptide text is derived from it. The star is where a group is joined. Cbz = O=C(OCc1ccccc1)*; CH2F = FC*

How the values were obtained:
[1] = tested on: Human U87 MG astrocytoma cells xenografted to nude mice; test: Tumour volume of U87 MG xenografts in nude mice; format: in vivo; details: following 15 days of treatment, 15 mg/kg per day peritumourally
Experimental: Human U87 MG astrocytoma cells were xenografted to nude mice and the test compounds were injected peritumourally at a concentration of 15 mg/kg per day.

[2] = tested on: human U87 MG astrocytoma cells; test: Cell viability of human U87 MG astrocytoma cells in culture; format: cell-based; details: U-87 MG, pure cannabinoids
Experimental: Tetrahydrocannabinol (THC) and cannabidiol (CBD) in the form of cannabis plant extracts were dissolved in ethanol to a concentration of 100 mM this was stored at −20° C. until required.
Before use the cannabis plant extracts were further diluted to the desired concentration, ensuring that the concentration of ethanol was below 0.001%.
U87 human glioma cells were used throughout this experiment. The cells were maintained at 37° C. in a humidified atmosphere with 5% CO2 and 95% air.
Cells were cultured in a 75 cm^2 culture flask in Dulbecco's Modified Eagle Medium (DMEM), which had been supplemented with 4 mM L-glutamine, 100 units/ml penicillin, […], 1% sodium pyruvate, 1% non-essential amino acids and 10% heat-inactivated fetal bovine serum.
The viability of the human U87 MG astrocytoma cells were examined at various cannabinoid concentrations. The THC and CBD extracts were compared against pure THC and CBD.
The methods used were as described in Example 1 above.

U87MG cells = test: Induced cell death with ATG1 silencing or pan-caspase inhibition; details: pan-caspase inhibitor; FIG. 3c

Question: Which results are given for CCCCCc1cc(O)c2c(c1)OC(C)(C)[C@@H]1CCC(C)=C[C@@H]21 [THC, tetrahydrocannabinol]?
Answer: Tumour volume relative to zero time [1]: 5.1 ± 0.4; IC50 [2]: 0.37 µM

Question: For CC(NC(=O)C(NC(=O)OCc1ccccc1)C(C)C)C(=O)NC(CC(=O)O)C(=O)CF (stereo not drawn) [Z-VAD] (Cbz-Val-Ala-Asp-CH2F; configuration not given here), which induced cell death (U87MG cells) is on record?
Answer: Its induced cell death is “prevent induced cell death”.

Question: For C=C(C)[C@@H]1CCC(C)=C[C@H]1c1c(O)cc(CCCCC)cc1O [CBD, cannabidiol], which IC50 [2] is on record?
Answer: Its IC50 is 0.47 µM.
